Data taken from ChEMBL document CHEMBL1201862, “PubChem BioAssay data set” (2004).
Each block holds one compound with its values, some of them ahead of it. The source made the active and inactive calls.

Assays:
[1] = viability of uninfected HEp-2 cells – cell-based, HTS, cytotoxicity control for RSV inhibitor project, dose response (AID 2410); format: functional; settings: human respiratory syncytial virus
[2] = target: Lysosomal acid glucosylceramidase (Homo sapiens, UniProt P04062); experiment: Dose response cell-based high throughput screening assay to identify enhancers of beta-glucosidase activity. [Related pubchem assays: 784 ]; format: functional
Chain of Lysosomal acid glucosylceramidase (P04062 whole entry): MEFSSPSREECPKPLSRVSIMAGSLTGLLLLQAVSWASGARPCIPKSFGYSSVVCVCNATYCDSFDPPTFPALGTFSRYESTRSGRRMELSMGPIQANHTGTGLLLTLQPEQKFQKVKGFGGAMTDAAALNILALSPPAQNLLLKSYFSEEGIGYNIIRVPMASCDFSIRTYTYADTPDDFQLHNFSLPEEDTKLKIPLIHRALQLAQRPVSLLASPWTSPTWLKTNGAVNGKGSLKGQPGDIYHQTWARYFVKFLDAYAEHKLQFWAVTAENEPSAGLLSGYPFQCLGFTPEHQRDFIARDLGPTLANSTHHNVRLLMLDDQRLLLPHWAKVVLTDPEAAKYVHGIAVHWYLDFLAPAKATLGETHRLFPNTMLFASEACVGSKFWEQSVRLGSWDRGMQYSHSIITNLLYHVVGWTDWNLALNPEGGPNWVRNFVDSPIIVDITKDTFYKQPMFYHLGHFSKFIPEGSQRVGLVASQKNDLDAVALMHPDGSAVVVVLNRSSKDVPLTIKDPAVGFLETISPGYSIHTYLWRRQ

[3] = target: Acyl-homoserine lactone acylase PvdQ (Pseudomonas aeruginosa (strain LESB58), UniProt Q9I194); experiment: PvdQ acylase enzyme activity blockers – biochemical, fluorescence, plate reader and imaging, cherry-picks, dose response (AID 493231)
Chain of Acyl-homoserine lactone acylase PvdQ (Q9I194 24-193 limits assumed): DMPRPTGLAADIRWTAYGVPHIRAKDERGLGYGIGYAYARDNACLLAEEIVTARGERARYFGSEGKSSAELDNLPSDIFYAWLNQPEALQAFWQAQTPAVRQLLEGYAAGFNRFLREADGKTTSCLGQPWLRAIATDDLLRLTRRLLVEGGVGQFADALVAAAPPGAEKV
Chain of Acyl-homoserine lactone acylase PvdQ (Q9I194 217-762 limits assumed): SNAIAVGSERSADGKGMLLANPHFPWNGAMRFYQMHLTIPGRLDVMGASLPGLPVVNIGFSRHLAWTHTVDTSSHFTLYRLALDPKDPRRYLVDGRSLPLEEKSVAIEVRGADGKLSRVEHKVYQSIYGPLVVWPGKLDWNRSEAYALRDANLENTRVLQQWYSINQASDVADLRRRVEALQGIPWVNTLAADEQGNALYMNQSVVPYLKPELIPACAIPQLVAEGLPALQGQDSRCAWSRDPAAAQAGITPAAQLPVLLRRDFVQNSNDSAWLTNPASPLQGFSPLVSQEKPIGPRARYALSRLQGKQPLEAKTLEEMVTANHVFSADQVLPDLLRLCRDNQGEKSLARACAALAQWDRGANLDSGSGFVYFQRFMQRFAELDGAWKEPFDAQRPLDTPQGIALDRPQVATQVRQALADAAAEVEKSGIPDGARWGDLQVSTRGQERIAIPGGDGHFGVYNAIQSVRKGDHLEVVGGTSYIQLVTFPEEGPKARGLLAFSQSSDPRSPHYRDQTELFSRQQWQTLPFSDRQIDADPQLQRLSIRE

[4] = target: Melanin-concentrating hormone receptor 1 (Homo sapiens, UniProt Q99705); experiment: Fluorescence-based counterscreen for antagonists of the G-protein coupled receptor 7 (GPR7): cell-based high throughput dose response assay to identify antagonists of the melanin-concentrating hormone receptor 1 (MCHR1).; format: functional
Chain of Melanin-concentrating hormone receptor 1 (Q99705 whole entry): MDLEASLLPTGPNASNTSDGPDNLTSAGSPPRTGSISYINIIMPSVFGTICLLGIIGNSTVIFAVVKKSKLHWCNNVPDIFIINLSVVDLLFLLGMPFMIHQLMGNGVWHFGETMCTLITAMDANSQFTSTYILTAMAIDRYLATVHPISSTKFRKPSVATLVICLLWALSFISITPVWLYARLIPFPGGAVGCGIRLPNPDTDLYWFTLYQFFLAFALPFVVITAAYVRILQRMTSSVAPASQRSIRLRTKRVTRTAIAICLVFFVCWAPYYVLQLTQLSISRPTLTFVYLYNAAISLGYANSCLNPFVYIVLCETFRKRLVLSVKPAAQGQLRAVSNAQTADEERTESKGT

[5] = target: T1, Neuropeptides B/W receptor type 1 (Homo sapiens, UniProt P48145); experiment: Fluorescence-based dose response cell-based high throughput screening assay to identify antagonists of the G-protein coupled receptor 7 (GPR7). [Related pubchem assays: 1952 (Screening assay (GPR7 antagonists).), 1880 (Summary AID.)]; format: functional
T1 sequence (P48145 whole entry): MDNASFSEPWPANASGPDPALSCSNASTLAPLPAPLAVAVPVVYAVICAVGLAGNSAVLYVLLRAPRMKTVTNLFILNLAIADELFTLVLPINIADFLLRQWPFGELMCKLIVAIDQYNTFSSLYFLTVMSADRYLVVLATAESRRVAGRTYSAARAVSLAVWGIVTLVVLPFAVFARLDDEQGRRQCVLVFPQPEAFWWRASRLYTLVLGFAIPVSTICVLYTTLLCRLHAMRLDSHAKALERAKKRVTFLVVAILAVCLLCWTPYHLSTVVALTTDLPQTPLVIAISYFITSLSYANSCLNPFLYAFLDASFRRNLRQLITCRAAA

[6] = target: Polyadenylate-binding protein 1 (Homo sapiens, UniProt P11940); experiment: blockers of PABP interaction with poly(A) – biochemical, fluorescence polarization, […] (AID 2014)
Chain of Polyadenylate-binding protein 1 (P11940 whole entry): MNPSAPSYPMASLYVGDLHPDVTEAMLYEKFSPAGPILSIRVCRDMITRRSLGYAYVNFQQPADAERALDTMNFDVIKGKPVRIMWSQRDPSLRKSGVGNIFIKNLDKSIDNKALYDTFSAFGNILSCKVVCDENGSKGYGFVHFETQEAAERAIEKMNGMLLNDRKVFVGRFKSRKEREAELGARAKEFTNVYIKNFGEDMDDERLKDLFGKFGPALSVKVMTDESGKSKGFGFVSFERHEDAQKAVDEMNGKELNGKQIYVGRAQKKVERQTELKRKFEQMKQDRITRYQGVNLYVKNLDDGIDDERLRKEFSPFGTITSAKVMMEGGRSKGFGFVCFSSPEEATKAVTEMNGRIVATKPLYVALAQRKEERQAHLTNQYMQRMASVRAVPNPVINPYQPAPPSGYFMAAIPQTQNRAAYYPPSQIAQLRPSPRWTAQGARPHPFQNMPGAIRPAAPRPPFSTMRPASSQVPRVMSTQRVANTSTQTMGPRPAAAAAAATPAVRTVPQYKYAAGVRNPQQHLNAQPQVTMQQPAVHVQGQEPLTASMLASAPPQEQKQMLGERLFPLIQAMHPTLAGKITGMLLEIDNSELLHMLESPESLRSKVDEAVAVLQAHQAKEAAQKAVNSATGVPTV

[7] = target: Eukaryotic translation initiation factor 4H (Homo sapiens, UniProt Q15056); experiment: eIF4H binding inhibition – biochemical, uHTS, fluorescence polarization, translation initiation inhibitor project, primary screen (AID 2012)
H9c2 = experiment: cells; format: functional, cell-based; settings: Rattus norvegicus, H9c2, Myocardium;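 further: confirmatory concentration-response retest of ultra-high-throughput screening hits for modulation of myocardial damage; cell death induced by hydrogen peroxide oxidative stress; compound pretreatment for 60 min then peroxide exposure for 2 h; potency is for protecting the cells against peroxide damage rather than for killing them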
HT-1080 = experiment: HT1080 cell viability loss – fluorescence readout (AID 620); format: functional, cell-based; settings: Homo sapiens
[8] = target: Luciferin 4-monooxygenase (Photinus pyralis, UniProt P08659); experiment: Counter Screen for Luciferase-based Assay Positives. [Related pubchem assays: 620, 618, 411 ]
Chain of Luciferin 4-monooxygenase (P08659 whole entry): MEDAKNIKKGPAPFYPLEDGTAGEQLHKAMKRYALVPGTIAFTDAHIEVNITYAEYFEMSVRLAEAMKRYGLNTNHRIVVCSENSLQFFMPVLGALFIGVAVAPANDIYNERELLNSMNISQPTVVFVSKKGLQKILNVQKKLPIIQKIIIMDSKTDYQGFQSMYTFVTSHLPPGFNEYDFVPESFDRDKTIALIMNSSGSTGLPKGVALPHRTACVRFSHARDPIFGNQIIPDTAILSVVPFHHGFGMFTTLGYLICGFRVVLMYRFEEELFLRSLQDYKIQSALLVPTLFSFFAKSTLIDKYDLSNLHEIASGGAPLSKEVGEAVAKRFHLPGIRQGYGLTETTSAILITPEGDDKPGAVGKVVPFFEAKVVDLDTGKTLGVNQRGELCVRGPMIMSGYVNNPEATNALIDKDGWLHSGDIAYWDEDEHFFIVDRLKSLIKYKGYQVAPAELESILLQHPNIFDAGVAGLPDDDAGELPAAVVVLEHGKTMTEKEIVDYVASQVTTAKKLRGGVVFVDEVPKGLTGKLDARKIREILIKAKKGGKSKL

[9] = target: T2, Heat shock 70 kDa protein 1A (Homo sapiens, UniProt P0DMV8); experiment: small-molecule inhibition of Hsp70 – biochemical, TR-FRET (AID 786)
T2 sequence (P0DMV8 whole entry): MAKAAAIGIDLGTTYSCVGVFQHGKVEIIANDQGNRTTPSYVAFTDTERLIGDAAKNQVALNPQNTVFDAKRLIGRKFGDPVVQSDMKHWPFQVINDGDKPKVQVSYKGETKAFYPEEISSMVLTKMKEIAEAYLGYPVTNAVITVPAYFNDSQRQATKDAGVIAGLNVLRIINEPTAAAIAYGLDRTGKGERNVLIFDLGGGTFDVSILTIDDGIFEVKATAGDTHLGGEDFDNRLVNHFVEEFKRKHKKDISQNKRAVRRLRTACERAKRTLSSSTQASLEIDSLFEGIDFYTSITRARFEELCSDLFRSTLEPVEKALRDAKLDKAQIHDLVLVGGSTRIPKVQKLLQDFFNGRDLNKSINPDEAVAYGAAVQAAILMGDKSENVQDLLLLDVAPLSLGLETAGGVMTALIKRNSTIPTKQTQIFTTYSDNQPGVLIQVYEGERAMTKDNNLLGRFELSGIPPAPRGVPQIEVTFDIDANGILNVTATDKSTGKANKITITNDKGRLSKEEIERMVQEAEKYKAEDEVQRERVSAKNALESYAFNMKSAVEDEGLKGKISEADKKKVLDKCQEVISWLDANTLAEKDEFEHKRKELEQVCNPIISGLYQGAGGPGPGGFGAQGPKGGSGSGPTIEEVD

[10] = target: T2, Heat shock 70 kDa protein 1A; experiment: small molecules displacing fluorescent ligand from Hsp70 – biochemical, fluorescence polarization, primary screen (AID 583)
INS1 = experiment: INS-1E survival protection against cytokine death – cell-based, luminescence, retest, dose response (AID 449756); format: functional; settings: Rattus norvegicus;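 further: cell death triggered by IL-1 beta plus TNF-alpha plus IFN-gamma mixture; protective hits raise ATP signal compared with cytokine alone wells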
[11] = target: FAD-linked sulfhydryl oxidase ALR (Homo sapiens, UniProt P55789); experiment: ALR-catalysed DTT oxidation blockers – biochemical, H2O2 detection, luminescence, cherry-pick, dose response (AID 493248)
Chain of FAD-linked sulfhydryl oxidase ALR (P55789 whole entry): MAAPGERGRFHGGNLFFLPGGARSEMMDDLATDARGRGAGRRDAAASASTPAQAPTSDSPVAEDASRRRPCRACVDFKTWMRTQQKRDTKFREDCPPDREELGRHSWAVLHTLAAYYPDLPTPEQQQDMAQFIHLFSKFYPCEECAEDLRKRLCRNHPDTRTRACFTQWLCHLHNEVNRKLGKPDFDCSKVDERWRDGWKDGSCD

Protein Rev = Protein Rev (Human immunodeficiency virus type 1 group M subtype B (isolate WMJ22)(HIV-1), UniProt P05866); experiment: inhibitors of Rev protein–RRE RNA complex – biochemical, protein-RNA interaction, dose response (AID 842); parameters: species or system Human immunodeficiency virus 1
Chain of Protein Rev (P05866 whole entry): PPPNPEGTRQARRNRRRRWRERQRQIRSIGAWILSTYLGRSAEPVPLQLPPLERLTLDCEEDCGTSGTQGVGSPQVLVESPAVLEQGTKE

[12] = MIN6 cell viability loss – mouse insulinoma, cytotoxicity control, dose response (AID 2122); format: functional;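 further: confirmatory high-throughput counterscreen run to flag cytotoxic compounds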
[13] = decrease of insulin promoter-GFP reporter – imaging, high-content screening, mouse beta cells (AID 1628); format: functional; settings: MIN6

SMILES: O=c1cccc2n1CC1CC2CN(Cc2cccc(Cl)c2Cl)C1 (stereo unspecified)
- CC50 [1]: 23.1 µM (active)
- EC50 [2]: > 50 µM (not active)

SMILES: CSc1nnc(-c2ccc([N+](=O)[O-])cc2)o1
- AC50 [3]: 6.96 µM (active)

SMILES: N#CC(c1ccc(Cl)cc1)c1ncc(C(F)(F)F)cc1Cl (stereo unspecified)
- AC50 [3]: 0.939 µM (active)

- IC50 [4]: > 43.8 µM (not active)
- IC50 [5]: > 43.8 µM (not active)
SMILES: CCOC(=O)c1[nH]c2ccc(OC)cc2c1NS(=O)(=O)c1ccc(OC)cc1OC

SMILES: CCC(=O)N1c2ccc(S(=O)(=O)NCc3ccco3)cc2CC1C (stereo unspecified)
- IC50 [6]: 24.1 µM (active)
- IC50 [7]: 10.2 µM (active)

SMILES: CN(CC1COc2ccccc2O1)c1nc(-c2cccnc2)nc2ccccc12 (stereo unspecified)
- IC50 (H9c2): 24.4 µM (active)
- EC50 [2]: 2.65 µM (active)

- IC50 [4]: > 43.8 µM (not active)
- IC50 [5]: > 43.8 µM (not active)
SMILES: O=C(c1cnccn1)N(Cc1cccs1)C1(C(=O)NC2CCCC2)CCCCC1

SMILES: Cc1cnc(NC(=O)C2COc3ccccc3O2)s1 (stereo unspecified)
- EC50 (HT-1080): > 50 µM (not active)
- EC50 [8]: 1.95 µM (active)

- IC50 [9]: > 100 µM (not active)
- IC50 [10]: > 100 µM (not active)
SMILES: CCn1nccc1C(=O)Nc1ccc(Cl)cn1

SMILES: C[n+]1c2n(c3ccccc31)N=C(c1ccc(Cl)cc1)CS2
- AC50 (INS1): 4.54 µM (active)
- AC50 [11]: 0.425 µM (active)
- IC50 (Protein Rev): > 79.4 µM (not active)
- IC50 [12]: 1.49 µM (active)
- IC50 [13]: 2.51 µM (active)
